41 molecules from patent publication US8394848B2, “Compounds that modulate intracellular calcium” (Calcimedica, Inc., priority 2008, dated 2013) can be followed below.

The structures appear in SMILES notation.

In this test the test system is JR251 or RBL cells. The test is described as follows: Store-operated calcium entry, either JR251 or RBL cells, or both. It is filed as cell-based. An outline of the steps: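 Orai1/STIM1 stable cells: fluo-4-AM loaded, compound 30 min at RT in Ca2+-free HBSS, then CaCl2 added; IC50 from Peak-Basal FLIPR fluorescence. RBL-2H3 cells: compound 5 min, then thapsigargin (5.5× stock, 5.5 uM) 25 min, then calcium added; IC50 from Upslope (signal 7 s after calcium minus baseline).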
`Cc1ccc(-c2csc(NC(=O)c3nc4c(F)cccc4s3)c2C(=O)O)c(F)c1F` [4-(2,3-difluoro-4-methylphenyl)-2-(4-fluorobenzo[d]thiazole-2-carboxamido)thiophene-3-carboxylic acid]: the IC50 (usually the concentration that gives 50% inhibition) is under 10 µM.

Consider `Cc1ccc(-c2csc(NC(=O)c3cc4c(F)cccc4o3)c2C(=O)O)c(F)c1F` [4-(2,3-difluoro-4-methylphenyl)-2-(4-fluorobenzofuran-2-carboxamido)thiophene-3-carboxylic acid], for which the IC50 is under 10 µM.

Regarding `Cc1ccc(-c2csc(NC(=O)c3cc4c(F)cccn4n3)c2C(=O)O)c(F)c1F` [4-(2,3-difluoro-4-methylphenyl)-2-(4-fluoropyrazolo[1,5-a]pyridine-2-carboxamido)thiophene-3-carboxylic acid], the IC50 was under 10 µM.

For `Cc1ccc(-c2csc(NC(=O)c3nc4cc(F)c(F)cc4o3)c2C(=O)O)c(F)c1F` [4-(2,3-difluoro-4-methylphenyl)-2-(5,6-difluorobenzo[d]oxazole-2-carboxamido)thiophene-3-carboxylic acid], the IC50 is under 10 µM.

Turning to `Cc1ccc(-c2csc(NC(=O)c3nc4cc(F)ccc4o3)c2C(=O)O)c(F)c1F` [4-(2,3-difluoro-4-methylphenyl)-2-(5-fluorobenzo[d]oxazole-2-carboxamido)thiophene-3-carboxylic acid], the 50% inhibitory concentration (IC50) was under 10 µM.

Turning to `COc1ccc2oc(C(=O)Nc3scc(-c4ccc(C)c(F)c4F)c3C(=O)O)nc2c1` [4-(2,3-difluoro-4-methylphenyl)-2-(5-methoxybenzo[d]oxazole-2-carboxamido)thiophene-3-carboxylic acid], the IC50 is under 10 µM.

In the case of `Cc1ccc(-c2csc(NC(=O)c3nc4ccc(F)cc4o3)c2C(=O)O)c(F)c1F` [4-(2,3-difluoro-4-methylphenyl)-2-(6-fluorobenzo[d]oxazole-2-carboxamido)thiophene-3-carboxylic acid], the IC50 is under 10 µM.

As to `Cc1ccc(-c2csc(NC(=O)c3nc4cccc(F)c4o3)c2C(=O)O)c(F)c1F` [4-(2,3-difluoro-4-methylphenyl)-2-(7-fluorobenzo[d]oxazole-2-carboxamido)thiophene-3-carboxylic acid], the IC50 is under 10 µM.

With `Cc1ccc(-c2csc(NC(=O)c3cc4cccc(O)c4o3)c2C(=O)O)c(F)c1F` [4-(2,3-difluoro-4-methylphenyl)-2-(7-hydroxybenzofuran-2-carboxamido)thiophene-3-carboxylic acid], the IC50 is under 10 µM.

Consider `Cc1ccc(-c2csc(NC(=O)c3cn4ccsc4n3)c2C(=O)O)c(F)c1F` [4-(2,3-difluoro-4-methylphenyl)-2-(imidazo[2,1-b]thiazole-6-carboxamido)thiophene-3-carboxylic acid], for which the IC50 was under 10 µM.

Take `Cc1ccc(-c2csc(NC(=O)c3cc4ccccn4n3)c2C(=O)O)c(F)c1F` [4-(2,3-difluoro-4-methylphenyl)-2-(pyrazolo[1,5-a]pyridine-2-carboxamido)thiophene-3-carboxylic acid]: the IC50 is under 10 µM.

As for `Cc1ccc(-c2csc(NC(=O)c3cnc4ccccc4n3)c2C(=O)O)c(F)c1F` [4-(2,3-difluoro-4-methylphenyl)-2-(quinoxaline-2-carboxamido)thiophene-3-carboxylic acid], the IC50 is under 10 µM.

For the molecule `Cc1ccc(-c2csc(NC(=O)c3cc4sccc4s3)c2C(=O)O)c(F)c1F` [4-(2,3-difluoro-4-methylphenyl)-2-(thieno[3,2-b]thiophene-2-carboxamido)thiophene-3-carboxylic acid], the IC50 is under 10 µM.

Consider `O=C(CCc1ccccc1)Nc1scc(-c2cc(F)c(Cl)cc2Cl)c1C(=O)O` [4-(2,4-dichloro-5-fluorophenyl)-2-(3-phenylpropanamido)thiophene-3-carboxylic acid], for which the IC50 is under 10 µM.

Consider `O=C(CSc1ccccc1)Nc1scc(-c2ccc(Cl)cc2Cl)c1C(=O)O` [4-(2,4-dichlorophenyl)-2-(2-(phenylthio)acetamido)thiophene-3-carboxylic acid], for which the IC50 was under 10 µM.

As for `O=C(CCc1ccccc1)Nc1scc(-c2ccc(Cl)cc2Cl)c1C(=O)O` [4-(2,4-dichlorophenyl)-2-(3-phenylpropanamido)thiophene-3-carboxylic acid], the IC50 is under 10 µM.

Turning to `O=C(CSc1ccccc1)Nc1scc(-c2ccccc2Br)c1C(=O)O` [4-(2-bromophenyl)-2-(2-(phenylthio)acetamido)thiophene-3-carboxylic acid], the IC50 was under 10 µM.

Consider `Cc1ccsc1C(=O)Nc1scc(-c2ccccc2Br)c1C(=O)O` [4-(2-bromophenyl)-2-(3-methylthiophene-2-carboxamido)thiophene-3-carboxylic acid], for which the IC50 is under 10 µM.

Regarding `O=C(O)c1c(-c2ccccc2Br)csc1NC(=O)C1CC1` [4-(2-bromophenyl)-2-(cyclopropanecarboxamido)thiophene-3-carboxylic acid], the IC50 is under 10 µM.

As to `O=C(Nc1scc(-c2ccccc2Br)c1C(=O)O)c1cccs1` [4-(2-bromophenyl)-2-(thiophene-2-carboxamido)thiophene-3-carboxylic acid], the IC50 is under 10 µM.

Turning to `COc1cccc(CC(=O)Nc2scc(-c3ccc(Cl)c(Cl)c3)c2C(=O)O)c1` [4-(3,4-dichlorophenyl)-2-(2-(3-methoxyphenyl)acetamido)thiophene-3-carboxylic acid], the IC50 was under 10 µM.

As to `O=C(CCc1ccccc1)Nc1scc(-c2ccc(Cl)c(Cl)c2)c1C(=O)O` [4-(3,4-dichlorophenyl)-2-(3-phenylpropanamido)thiophene-3-carboxylic acid], the IC50 was under 10 µM.

As for `O=C(Nc1scc(-c2ccc(Cl)c(Cl)c2)c1C(=O)O)c1ccsc1` [4-(3,4-dichlorophenyl)-2-(thiophene-3-carboxamido)thiophene-3-carboxylic acid], the IC50 is under 10 µM.

As to `Cc1ccc(-c2csc(NC(=O)c3sccc3C)c2C(=O)O)cc1C` [4-(3,4-dimethylphenyl)-2-(3-methylthiophene-2-carboxamido)thiophene-3-carboxylic acid], the concentration for half-maximal inhibition (IC50) is under 10 µM.

With `Cc1ccc(-c2csc(NC(=O)c3ccsc3)c2C(=O)O)cc1C` [4-(3,4-dimethylphenyl)-2-(thiophene-3-carboxamido)thiophene-3-carboxylic acid], the IC50 was under 10 µM.

Turning to `Cc1ccsc1C(=O)Nc1scc(-c2cccc(Cl)c2)c1C(=O)O` [4-(3-chlorophenyl)-2-(3-methylthiophene-2-carboxamido)thiophene-3-carboxylic acid], the IC50 was under 10 µM.

In the case of `O=C(Nc1scc(-c2cccc(Cl)c2)c1C(=O)O)c1ccsc1` [4-(3-chlorophenyl)-2-(thiophene-3-carboxamido)thiophene-3-carboxylic acid], the IC50 is under 10 µM.

For the molecule `O=C(O)c1c(-c2ccc(Br)cc2)csc1NC(=O)C1CCc2ccccc2C1` (centres unmarked) [4-(4-bromophenyl)-2-(1,2,3,4-tetrahydronaphthalene-2-carboxamido)thiophene-3-carboxylic acid], the IC50 is under 10 µM.

`Cc1nn(C)c2sc(C(=O)Nc3scc(-c4ccc(Br)cc4)c3C(=O)O)cc12` [4-(4-bromophenyl)-2-(1,3-dimethyl-1H-thieno[2,3-c]pyrazole-5-carboxamido)thiophene-3-carboxylic acid]: the IC50 is under 10 µM.

Consider `Cn1cnc(C(=O)Nc2scc(-c3ccc(Br)cc3)c2C(=O)O)c1` [4-(4-bromophenyl)-2-(1-methyl-1H-imidazole-4-carboxamido)thiophene-3-carboxylic acid], for which the half-inhibitory concentration (IC50) is under 10 µM.

Consider `O=C(O)c1c(-c2ccc(Br)cc2)csc1NC(=O)C1Cc2ccccc2C1` [4-(4-bromophenyl)-2-(2,3-dihydro-1H-indene-2-carboxamido)thiophene-3-carboxylic acid], for which the IC50 was under 10 µM.

Regarding `O=C(O)c1c(-c2ccc(Br)cc2)csc1NC(=O)C1Cc2ccccc2O1` (centres unmarked) [4-(4-bromophenyl)-2-(2,3-dihydrobenzofuran-2-carboxamido)thiophene-3-carboxylic acid], the IC50 is under 10 µM.

Regarding `O=C(CSc1ccccc1)Nc1scc(-c2ccc(Br)cc2)c1C(=O)O` [4-(4-bromophenyl)-2-(2-(phenylthio)acetamido)thiophene-3-carboxylic acid], the IC50 is under 10 µM.

With `Cc1cc(C(=O)Nc2scc(-c3ccc(Br)cc3)c2C(=O)O)cc(O)n1` [4-(4-bromophenyl)-2-(2-hydroxy-6-methylisonicotinamido)thiophene-3-carboxylic acid], the IC50 was under 10 µM.

As for `CC(C(=O)Nc1scc(-c2ccc(Br)cc2)c1C(=O)O)C(C)c1ccccc1` (centres unmarked) [4-(4-bromophenyl)-2-(2-methyl-3-phenylbutanamido)thiophene-3-carboxylic acid], the IC50 was under 10 µM.

For the molecule `CC(Cc1ccccc1)C(=O)Nc1scc(-c2ccc(Br)cc2)c1C(=O)O` (centres unmarked) [4-(4-bromophenyl)-2-(2-methyl-3-phenylpropanamido)thiophene-3-carboxylic acid], the half-maximal inhibitory concentration (IC50) was under 10 µM.

With `O=C(CC(c1ccccc1)c1ccccc1)Nc1scc(-c2ccc(Br)cc2)c1C(=O)O` [4-(4-bromophenyl)-2-(3,3-diphenylpropanamido)thiophene-3-carboxylic acid], the IC50 was under 10 µM.

Take `O=C(CCc1ccc(F)cc1F)Nc1scc(-c2ccc(Br)cc2)c1C(=O)O` [4-(4-bromophenyl)-2-(3-(2,4-difluorophenyl)propanamido)thiophene-3-carboxylic acid]: the IC50 is under 10 µM.

Consider `O=C(O)c1c(-c2ccc(Br)cc2)csc1NC(=O)C(F)Cc1c(Cl)cccc1Cl` (centres unmarked) [4-(4-bromophenyl)-2-(3-(2,6-dichlorophenyl)-2-fluoropropanamido)thiophene-3-carboxylic acid], for which the IC50 was under 10 µM.

With `O=C(CCc1c(Cl)cccc1Cl)Nc1scc(-c2ccc(Br)cc2)c1C(=O)O` [4-(4-bromophenyl)-2-(3-(2,6-dichlorophenyl)propanamido)thiophene-3-carboxylic acid], the IC50 is under 10 µM.

Turning to `Cc1cccc(C)c1CCC(=O)Nc1scc(-c2ccc(Br)cc2)c1C(=O)O` [4-(4-bromophenyl)-2-(3-(2,6-dimethylphenyl)propanamido)thiophene-3-carboxylic acid], the IC50 was under 10 µM.
